Test results as given in publication PMC6198970, “Safety, efficacy, and dose response of the maturation inhibitor GSK3532795 (formerly known as BMS-955176) plus tenofovir/emtricitabine once daily in treatment-naive HIV-1-infected adults: Week 24 primary analysis from a randomized Phase IIb trial” (PLoS ONE, 2018).
Where two headings read alike, the source gives them in different places.

What was measured:
[1] = set-up: method as in Study AI468041; conditions: BMS-955176 80 mg SDD suspension with combined oral contraceptive; ref Study AI468041; cited from earlier work
HIV-1 [2] = test: Protocol-defined virologic failure and drug resistance testing (GenoSure MG, PhenoSense); format: in vivo, HIV-1-infected adults; conditions: through Week 24
From the text: PDVF was defined as either: (1) confirmed HIV-1 RNA ≥40 copies/mL at any time after prior confirmed suppression to <40 copies/mL; or (2) a confirmed >1 log10 copies/mL above the nadir level. Genotypic information required for screening was generated using the GenoSure® MG assay; genotypic information and phenotypic observations during the treatment period were generated using the PhenoSense® combination resistance test.

HIV-1 [3] = test: Phase IIb study 205891: plasma HIV-1 RNA response at Week 24 (FDA snapshot, observed); format: in vivo, HIV-1-infected adults; conditions: Week 24, mITT; GSK3532795: range across 60, 120, 180 mg arms; EFV 600 mg; each + TDF/FTC
Experimental: 205891 was a Phase IIb, randomized, active-controlled, double-blind trial performed at 58 sites in 12 countries across South America, North America, South Africa, and Europe. Participants were randomized 1:1:1:1 to one of four treatment arms; GSK3532795 at doses of 60 mg, 120 mg or 180 mg once daily (QD), and one reference arm with EFV at a dose of 600 mg QD, each given in combination with TDF/FTC 300/200 mg QD.
Participants attended study visits at screening, on Day 1, and once every 4 weeks from Week 4 to Week 24 (telephonic visits were conducted at Week 20). Participants were expected to continue treatment, then, through Week 96, with visit intervals every 8–12 weeks. A post-dose safety follow-up visit was also conducted 12 weeks after treatment discontinuation. Plasma HIV-1 RNA levels were quantified by the Abbott RealTime HIV-1 assay.
The FDA-defined snapshot algorithm was used for primary endpoint efficacy assessment, using the last plasma HIV-1 RNA value in the pre-defined Week 24 visit window (± 6 weeks) to determine response. The modified intent-to-treat (mITT) population consisted of participants who received at least one dose of GSK3532795 or EFV. […]

[4] = BMS-955176 40 mg SDD suspension and TDF at steady state; ref Study AI468005; cited from earlier work
CYP1A2, CYP2B6, CYP3A4 = test system: CYP1A2, CYP2B6, CYP3A4; set-up: method as in protocol Section 1.4.1.2; conditions: ref protocol Section 1.4.1.2; cited from earlier work
[5] = set-up: method as in AI468001 and AI468002; conditions: same doses and formulation; ref AI468001 and AI468002; listed as BMS-955176; cited from earlier work
OATP1B3 = test system: OATP1B3; set-up: method as in protocol Section 1.4.1.2; conditions: ref protocol Section 1.4.1.2; cited from earlier work
CD4+ T-cell count = test: Change from baseline in CD4+ T-cell count; format: in vivo, HIV-1-infected adults; conditions: Week 24
From the text: The primary endpoint was determination of the proportion of participants with plasma HIV-1 RNA <40 copies/mL at Week 24 after treatment with GSK3532795 or efavirenz (EFV). Secondary endpoints included mean changes from baseline in CD4+ T-cell count and mean changes in the percentage of CD4+ T-cell count over time. Secondary safety endpoints included frequency of adverse events (AEs), serious AEs (SAEs), and AEs leading to discontinuation through Week 24. Further secondary endpoints included emergence of drug resistance. Exploratory endpoints included assessment of the impact of Gag polymorphisms on the efficacy of GSK3532795. […] In addition, though Gag A364 is essentially invariant across genotypes, it was included in the primary endpoint analysis since emergent resistance to GSK3532795 (both in vitro and in Phase IIa studies) mapped, in part, to the A364V change. Thus, our analysis at the Week 24 primary endpoint was limited to these four positions. Pharmacokinetic (PK) analyses were performed to evaluate treatment exposure and assess the dose proportionality of GSK3532795 when co-administered with tenofovir disoproxil fumarate (TDF)/emtricitabine (FTC).

[6] = cited from earlier work
[7] = 10 mg/kg/day; ref protocol Section 1.4.1.2; cited from earlier work
[8] = set-up: method as in protocol Section 1.4.1.2; conditions: ref protocol Section 1.4.1.2; cited from earlier work
HIV-1 protease = test system: HIV-1 protease; set-up: method as in protocol Section 1.4.1.2; conditions: ref protocol Section 1.4.1.2; cited from earlier work
[9] = cited from earlier work; remark: listed apart in the source
[10] = test system: 23 isolates of subtype C viruses; set-up: method as in protocol Section 1.4.1.2; conditions: 23 subtype C isolates; ref protocol Section 1.4.1.2; read-out: EC50, median; cited from earlier work
[11] = test system: P gp, NTCP, OAT1, OAT3, MRP2, BSEP; set-up: method as in protocol Section 1.4.1.2; conditions: ref protocol Section 1.4.1.2; cited from earlier work
93 subtype B viruses = test system: 93 subtype B viruses; set-up: method as in protocol Section 1.4.1.2; conditions: ref protocol Section 1.4.1.2, read-out: EC50, median; cited from earlier work
[12] = molecular target: broad range of enzymes, transporters, and receptors, including cardiac ion channels; set-up: method as in protocol Section 1.4.1.2; conditions: ref protocol Section 1.4.1.2; read-out: IC50 or EC50 for in vitro off-target interactions; cited from earlier work
P-gp = test system: P-gp; set-up: method as in protocol Section 1.4.1.2; conditions: ref protocol Section 1.4.1.2; cited from earlier work
OCT2 = test system: OCT2; set-up: method as in protocol Section 1.4.1.2; conditions: preliminary data; ref protocol Section 1.4.1.2; cited from earlier work
[13] = test system: reverse transcriptase (RT), protease, and integrase inhibitor-resistant viruses; conditions: cited from earlier work
CYPs = test system: CYPs; set-up: method as in protocol Section 1.4.1.2; conditions: ref protocol Section 1.4.1.2; cited from earlier work
[14] = cited from earlier work; remark: listed apart in the source
[15] = set-up: method as in protocol Section 1.4.1.2; conditions: ref protocol Section 1.4.1.2; cited from earlier work; remark: listed apart in the source
[16] = test system: human immunodeficiency virus type-2 (HIV-2) isolates; set-up: method as in protocol Section 1.4.1.2; conditions: active against 1 of 3 HIV-2 isolates; ref protocol Section 1.4.1.2; cited from earlier work

Structure (SMILES): C=C(C)[C@@H]1CC[C@]2(NCCN3CCS(=O)(=O)CC3)CC[C@]3(C)[C@H](CC[C@@H]4[C@@]5(C)CC=C(c6ccc(C(=O)O)cc6)C(C)(C)[C@@H]5CC[C@]43C)[C@@H]12 [GSK3532795]
- Effect on exposures to ethinyl estradiol (EE) and norelgestromin (NGMN) [1]: reduced
- Rate of protocol-defined virologic failure (PDVF) (HIV-1 [2]; 60 mg arm): 12% (6/50)
- Rate of protocol-defined virologic failure (PDVF) (HIV-1 [2]; 120 mg arm): 10% (5/52)
- Rate of protocol-defined virologic failure (PDVF) (HIV-1 [2]; 180 mg arm): 6% (3/51)
- Participants achieving HIV-1 RNA <40 copies/mL (HIV-1 [3]): 76–83%
- Impact of coadministration on exposures [4]: neither BMS-955176 nor TDF exposures were meaningfully impacted
- Induction of CYP1A2, CYP2B6, or CYP3A4 (CYP1A2, CYP2B6, CYP3A4): not an inducer
- Exposures lower in HIV-1-infected subjects compared to healthy subjects [5]: 35%
- IC50 (OATP1B3): 4000 nM
- Mean change in CD4+ T-cell count (SD) (CD4+ T-cell count; 60 mg): 94.3 (SD 175.00) cells/μL
- Mean change in CD4+ T-cell count (SD) (CD4+ T-cell count; 120 mg): 79.7 (SD 199.46) cells/μL
- Mean change in CD4+ T-cell count (SD) (CD4+ T-cell count; 180 mg): 92.5 (SD 144.04) cells/μL
- Increase in serum ALT activity ([6]; 20 mg/kg/day, 1 female, ref protocol Section 1.4.1.2): 2.10 × pretest
- Loss of body weight ([6]; 20 mg/kg/day, 2 females, ref protocol Section 1.4.1.2): up to 8%
- NOAEL ([6]; dog, in vivo): 8 mg/kg/day
- NOAEL dose (heart rate) ([6]; dog, in vivo): 20 mg/kg/day
- AUC at lowest dose with effects [7]: 71 gh/mL
- Phototoxicity, mutagenicity, clastogenicity in vitro [8]: not phototoxic, mutagenic, or clastogenic
- Direct inhibition of HIV-1 protease (HIV-1 protease): does not directly inhibit HIV-1 protease
- Safety in Phase 1 ([9]; SAD 10-120 mg, MAD 10-80 mg QD for 14-28 days, ref Study AI468001): No SAEs, deaths, or discontinuations related to study drug occurred
- Half life (T-HALF) ([9]; healthy subjects, ref Study AI468001): approximately 35 hours
- Increase in BMS-955176 AUC(TAU) ([9]; multiple dose with daily 400 mg ATV and a standard meal for 14 days, ref AI468001): ~ 25%
- Time to steady state ([9]; multiple-dose once daily, ref Study AI468001): approximately 7 days
- Increase in Cmax and AUC(INF) with dose ([9]; single dose 10-120 mg, multiple dose 10-80 mg QD, ref Study AI468001): slightly less than dose-proportional
- Increase in BMS-955176 AUC(INF) ([9]; single dose following two doses of 100 mg RTV, ref AI468001): ~48%
- EC50 [10]: 5.6 nM
- Inhibition of P gp, NTCP, OAT1, OAT3, MRP2, and BSEP [11]: not an inhibitor
- EC50 (93 subtype B viruses): 2.2 nM
- IC50 [12]: > 5000 nM
- P-gp inhibition (P-gp): No P-gp inhibition
- Inhibition of OCT2 (OCT2): does not inhibit OCT2
- Activity against RT, protease, and integrase inhibitor-resistant viruses ([13]; EC50 values similar to wild-type, ref protocol Section 1.4.1.2): retains complete activity
- Activity against a panel of PI-resistant isolates from PI-treated subjects ([13]; major and minor PI-resistance determinants in protease and Gag): maintained activity
- Time-dependent inhibition of CYPs (CYPs): No
- AUC at NOAEL ([14]; 30 mg/kg/day, ref protocol Section 1.4.1.2): 1.135e+08 µg·h/mL
- ALT activity not recovered, fold ([14]; 100 mg/kg/day, 1 male, end of 2-week recovery, ref protocol Section 1.4.1.2): 1.94 x
- AUC at dose with dose-limiting toxicity ([14]; 100 mg/kg/day, ref protocol Section 1.4.1.2): 357 g·h/mL
- Finding at high dose ([14]; 300 mg/kg/day, Days 8 to 9, ref protocol Section 1.4.1.2): early euthanasia of all the rats
- NOAEL ([14]; rat, in vivo): 30 mg/kg/day
- Route of elimination [15]: eliminated principally via metabolism followed by excretion in bile with little renal excretion
- Tissue distribution [15]: distributed preferentially into the duodenum, liver, and lymph nodes with little penetration into the brain
- EC50 [16]: 15 nM
